The values that follow come from patent publication US12466821B2 (Novartis AG, priority 2018, dated 2025).

For orientation: EC50 means the concentration that produces a half-maximal response.

The test system of this experiment is Luciferase-encoding HCMV, AD169 strain. Briefly: CMV Luciferase assay (cellular herpesvirus replication). To be noted: Human betaherpesvirus 5, AD169, read-out: CMV-Luc Cellular EC50. It counts as cell-based. The procedure: For all viral assays, 10 mM DMSO stock compound solutions were serially diluted in DMSO at 3.16 fold dilutions in 96-well clear round bottom plates. Compounds were then diluted in assay media at 1:20 and subsequently 10 μL of these dilutions were added to cells for final compound concentrations ranging either from 0.0159 μM to 50 μM in 0.5% DMSO/assay media, or from 0.00318 to 10 μM in 0.5% DMSO/assay media.
The assay uses a Luciferase-encoding HCMV. Luciferase is expressed under the control of a late viral gene (pp28) promoter in the AD169 strain, so that expression of the reporter is dependent on viral DNA replication. Compounds that affect any stage from viral entry to DNA replication result in a change in luciferase levels.
Viral replication in the presence or absence of compounds was measured by luciferase activity according to the following procedure: Neo-natal normal human dermal fibroblast cells (NN-NHDF, from ATCC cat #201-010) were seeded at 9,000 cells/well in 96-well white solid bottom plate at 80 uL/well in assay media: 2% FBS, 4 mM GlutaMax® (Invitrogen cat #35050) in DMEM/high glucose/no glutamine/no phenol red media (Invitrogen cat #31053). After 2 hrs at 37° C., 10 uL of compound diluted in assay media or 5% DMSO (final 0.5% DMSO/well) was added and the plates returned to 37° C. One hour later, 10 uL of virus diluted in assay media was added at a final Multiplicity of infection (MOI) of 1. Plates were incubated at 37° C. for 72 hrs. At 72 hours post-infection (hpi), plates were equilibrated to room temperature. After 25 min, 100 uL Renilla-Glo® Luciferase Assay Reagent (Promega cat # E2750) was added to each well and incubated for 10 min. Plates were covered to protect from light. Luminescence was measured on the PHERAstar FS®.
The following controls were included in the data analysis: No virus, no compound (0.5% DMSO)=IC (maximal inhibitory control); Virus, no compound (0.5% DMSO)=NC (neutral control). Data were analyzed using an internal Novartis software (Helios). The means of the controls (NC, IC) were used to normalize the results to a % scale using the formula: % Control=100−(100*(Sample value−NC)/(IC−NC)).
For each compound, the software derived an EC50 using a 4-parameter logistical model.
Take `CS(=O)(=O)CCN1CCn2c(ccc(C(=O)NCc3ccc(Cl)cc3)c2=O)C1=O` [Example 51, N-(4-chlorobenzyl)-2-(2-(methylsulfonyl)ethyl)-1,6-dioxo-2,3,4,6-tetrahydro-1H-pyrido[1,2-a]pyrazine-7-carboxamide]: the EC50 amounted to 1870 nM.

Turning to `Cc1cc(C(=O)NCc2ccc(Cl)cc2)c(=O)n2c1C(=O)N(CC1(CS(C)(=O)=O)CC1)CC2` [Example 154], the EC50 was 662 nM.

Turning to `CCc1cc(C(=O)NCc2ccc(Cl)cc2)c(=O)n2c1C(=O)N(CCN1CCCS1(=O)=O)CC2` [Example 135], the EC50 came to 749 nM.

Take `CCOC(=O)C1(CN2CCn3c(ccc(C(=O)NCc4ccc(Cl)cc4)c3=O)C2=O)CC1` [Example 207, ethyl 1-((7-((4-chlorobenzyl)carbamoyl)-1,6-dioxo-1,3,4,6-tetrahydro-2H-pyrido[1,2-a]pyrazin-2-yl)methyl)cyclopropane-1-carboxylate]: the EC50 came out at 3790 nM.

On to `O=C(NCc1ccc(Cl)cc1)c1ccc2n(c1=O)CCN(CC1(C(=O)N3CCC3)CC1)C2=O` [Example 208, 2-((1-(azetidine-1-carbonyl)cyclopropyl)methyl)-N-(4-chlorobenzyl)-1,6-dioxo-1,3,4,6-tetrahydro-2H-pyrido[1,2-a]pyrazine-7-carboxamide], for which the EC50 was found to be 5180 nM.

As for `CS(=O)(=O)C1(CCN2CCn3c(ccc(C(=O)NCc4ccc(Cl)cc4)c3=O)C2=O)CC1` [Example 170, N-(4-chlorobenzyl)-2-(2-(1-(methylsulfonyl)cyclopropyl)ethyl)-1,6-dioxo-1,3,4,6-tetrahydro-2H-pyrido[1,2-a]pyrazine-7-carboxamide], the 50% effective concentration (EC50) came out at 9030 nM.

As for `Cc1cc(C(=O)NCc2ccc(Cl)cc2)c(=O)n2c1C(=O)N(CCC1(S(C)(=O)=O)CC1)CC2` [Example 151], the EC50 was found to be 10000 nM.

Take `O=C(NCc1ccc(Cl)cc1)c1cc(CC2CC2)c2n(c1=O)CCN(CCN1CCCS1(=O)=O)C2=O` [Example 133, N-(4-chlorobenzyl)-9-(cyclopropylmethyl)-2-(2-(1,1-dioxidoisothiazolidin-2-yl)ethyl)-1,6-dioxo-1,3,4,6-tetrahydro-2H-pyrido[1,2-a]pyrazine-7-carboxamide]: the EC50 is 1020 nM.

As to `CS(=O)(=O)C1(CCN2CCn3c(c(F)cc(C(=O)NCc4ccc(Cl)cc4)c3=O)C2=O)CC1` [Example 165], the EC50 was found to be 10000 nM.

In the case of `CS(=O)(=O)CCCN1CCn2c(c(C3CC3)cc(C(=O)NCc3ccc(Cl)cc3)c2=O)C1=O` [Example 130], the EC50 came out at 13300 nM.

As for `O=C(NCc1ccc(Cl)cc1)c1cc(C(F)F)c2n(c1=O)CCN(CCN1CCCS1(=O)=O)C2=O` [Example 144], the concentration for a half-maximal effect (EC50) turned out to be 10400 nM.

Regarding `O=C(NCc1ccc(Cl)cc1)c1ccc2n(c1=O)CCN(CC1(C(=O)N3CCOCC3)CC1)C2=O` [Example 211], the half-maximal effective concentration (EC50) was 7810 nM.

With `N#Cc1ccc(CNC(=O)c2ccc3n(c2=O)CCN(CC2(S(=O)(=O)CCCO)CC2)C3=O)cc1F` [Example 23], the concentration for a half-maximal effect (EC50) was found to be 452 nM.

`Cc1cc(C(=O)NCc2ccc(Cl)cc2)c(=O)n2c1C(=O)N(CC1(N3CCCS3(=O)=O)CC1)CC2` [Example 150]: the 50% effective concentration (EC50) is 67.7 nM.

With `CN(C)S(=O)(=O)C1(CN2CCn3c(ccc(C(=O)NCc4ccc(C#N)cc4)c3=O)C2=O)CC1` [Example 90-2], the EC50 is 34 nM.

Take `CN(C)C(=O)C1(CN2CCn3c(ccc(C(=O)NCc4ccc(Cl)cc4)c3=O)C2=O)CC1` [Example 209]: the 50% effective concentration (EC50) is 2490 nM.

Turning to `CS(=O)(=O)CC1(CN2CCn3c(c(F)cc(C(=O)NCc4ccc(Cl)cc4)c3=O)C2=O)CC1` [Example 168], the EC50 worked out at 1100 nM.

For `N#CCS(=O)(=O)C1(CN2CCn3c(ccc(C(=O)NCc4ccc(Cl)cc4)c3=O)C2=O)CC1` [Example 108-1, N-(4-Chlorobenzyl)-2-((1-((cyanomethyl)sulfonyl)cyclopropyl)methyl)-1,6-dioxo-2,3,4,6-tetrahydro-1H-pyrido[1,2-a]pyrazine-7-carboxamide], the concentration for a half-maximal effect (EC50) is 228 nM.

Turning to `O=C(NCc1ccc(Cl)cc1)c1cc(C2CC2)c2n(c1=O)CCN(CCN1CCCS1(=O)=O)C2=O` [Example 131], the half-maximal effective concentration (EC50) was found to be 949 nM.

As to `CS(=O)(=O)CCCN1CCn2c(c(C(F)(F)F)cc(C(=O)NCc3ccc(Cl)cc3)c2=O)C1=O` [Example 146, N-(4-chlorobenzyl)-2-(3-(methylsulfonyl)propyl)-1,6-dioxo-9-(trifluoromethyl)-1,3,4,6-tetrahydro-2H-pyrido[1,2-a]pyrazine-7-carboxamide], the concentration giving a half-maximal response (EC50) stood at 47200 nM.

Take `NC1(CN2CCn3c(ccc(C(=O)NCc4ccc(Cl)cc4)c3=O)C2=O)CC1` [Example 197]: the EC50 is 4790 nM.

In the case of `CN(CCN1CCn2c(c(F)cc(C(=O)NCc3ccc(Cl)cc3)c2=O)C1=O)S(C)(=O)=O` [Example 160, N-(4-chlorobenzyl)-9-fluoro-2-(2-(N-methylmethylsulfonamido)ethyl)-1,6-dioxo-1,3,4,6-tetrahydro-2H-pyrido[1,2-a]pyrazine-7-carboxamide], the concentration for a half-maximal effect (EC50) was found to be 3600 nM.

Take `CS(=O)(=O)C1(CN2CCn3c(c(F)cc(C(=O)NCc4ccc(Cl)cc4)c3=O)C2=O)CC1` [Example 167]: the EC50 is 57.3 nM.
